This note sets out measurements from PubChem BioAssay AID1996.

The term solubility (kinetic) denotes solubility judged after dilution from a stock solution rather than from solid.

≈ marks a conversion by molar mass, not a printed value.

For this data set the following is noted: buffer; pH 7.4; 200.0 µM.
For `O=S(=O)(NC1=NCCCCC1)c1ccccc1Cl`, the solubility (kinetic) was more than 43 µg/mL.

As for `O=C(NC1CCCCC1)c1cc(C2CC2)on1`, the kinetic solubility was more than 35.1 µg/mL. On to `Cc1cc(C)nc(NC(=O)c2ccc(Cl)c([N+](=O)[O-])c2)n1`, for which the kinetic solubility is 22.1 µg/mL (≈ 72.1 µM). With `CC(=O)c1cccc(NC(=O)c2cc(=O)c3ccccc3o2)c1`, the solubility (kinetic) was less than 0.7 µg/mL. As for `CN(Cc1ccccc1)C(=O)COc1cc(Cl)ccc1Cl`, the solubility (kinetic) was found to be 24.1 µg/mL (≈ 74.3 µM). Take `O=C(NCc1ccncc1)c1cc2ccccc2nc1Cl`: the kinetic solubility was found to be 43.4 µg/mL (≈ 146 µM). With `O=C(Cn1ccc([N+](=O)[O-])n1)NCC1CCCO1` (configuration not stated), the solubility (kinetic) was more than 38.1 µg/mL.

`C=CCSc1nc2ccccc2c(=O)n1C1CCOC(C)(C)C1` (configuration not stated) showed a kinetic solubility of 8.6 µg/mL (≈ 26 µM).

`O=C(NCCc1csc(-c2ccccc2)n1)c1ccccc1F` had a kinetic solubility of 40.2 µg/mL (≈ 123 µM). Molecule `COc1ccc(Cl)cc1C(=O)NCc1ccc2c(c1)OCO2` registered a kinetic solubility of 34.3 µg/mL (≈ 107 µM). The molecule `COc1cc(/C=C(/C#N)C(=O)NCCCc2ccccc2)ccc1OCC(=O)O` registered a kinetic solubility of 37.9 µg/mL (≈ 96.1 µM).

On to `O=C(N/C(=C/c1ccccc1)C(=O)N1CCCCC1)c1ccco1`, for which the kinetic solubility was more than 48.7 µg/mL. The value for `COCCNC(=S)NC(=O)c1ccc(C(C)(C)C)cc1` was 14 µg/mL (≈ 47.6 µM); that for `COc1ccc2c(c1)Sc1ccccc1N2` was 2.7 µg/mL (≈ 11.8 µM); that for `CSc1nc(-c2cccs2)c(C#N)c(=O)[nH]1` was 37.3 µg/mL (≈ 150 µM). `O=C(Nc1nccs1)[C@@H]1CCCN1S(=O)(=O)c1ccc(Cl)cc1` displayed a solubility (kinetic) of 31.5 µg/mL (≈ 84.7 µM). `Cc1ccc(NC(=O)C(C)OC(=O)CSc2ccccc2)cc1` (configuration not stated) yielded a solubility (kinetic) of more than 49.4 µg/mL. On to `C=CCNC(=O)c1ccc2c(c1)N(CC)C(=O)c1ccccc1S2`, for which the kinetic solubility was more than 50.8 µg/mL. In turn, `CCn1c(SCC(=O)OC(C)C)nnc1-c1ccccc1OC` gave a kinetic solubility of more than 50.3 µg/mL.

Consider `Cc1ccc(NC(=O)C[n+]2cc(-c3ccccc3)n3c2CCC3)c(C)c1.[Cl-]`, for which the kinetic solubility was 55.4 µg/mL. `CC(=O)N(C)c1ccc(NC(=S)NCC(C)C)cc1` registered a solubility (kinetic) of more than 41.9 µg/mL. In turn, `CC(CN1CCOCC1)OC(=O)c1ccccc1Cl.Cl` (configuration not stated) yielded a solubility (kinetic) of more than 48 µg/mL. For `CCOC(=O)C1(Cc2cccc(F)c2)CCN(CC(O)CO)CC1` (configuration not stated), the kinetic solubility is 43.3 µg/mL (≈ 128 µM). Molecule `CN(C)C(=O)COc1ccc(C(=O)/C=C/c2cccnc2)cc1` returned a solubility (kinetic) of 41.6 µg/mL (≈ 134 µM). Molecule `CCc1noc(C)c1C(=O)OCC(=O)Nc1ccc(F)cc1Cl` gave a solubility (kinetic) of 10.8 µg/mL (≈ 31.7 µM). Regarding `CCN(CC)C(=S)Oc1c(Cl)cccc1Cl`, the solubility (kinetic) turned out to be 2.2 µg/mL (≈ 7.91 µM). The value for `CCN(CC)S(=O)(=O)c1ccc(Oc2ccccc2OC)cc1` was 10 µg/mL (≈ 29.8 µM); that for `Cc1ccc(NC(=O)c2ccc([N+](=O)[O-])o2)c(C)c1` was more than 39 µg/mL. As for `COc1ccc(NC(=S)NCc2cccs2)cc1OC`, the kinetic solubility came out at 19.6 µg/mL (≈ 63.5 µM). Molecule `COc1ccc(NC(=O)c2ccc(NC(=O)c3ccncc3)cc2)cc1` returned a solubility (kinetic) of 0.8 µg/mL (≈ 2.3 µM).

`CCC(=O)c1ccc(OC(=O)N2CCOCC2)cc1` showed a kinetic solubility of more than 39.5 µg/mL. As for `Cc1cc(C)cc(NC(=S)N(C)C)c1`, the kinetic solubility turned out to be 30.7 µg/mL (≈ 147 µM). `CCOC(=O)c1cc(COc2cc(Cl)cc(Cl)c2)on1` displayed a solubility (kinetic) of less than 0.7 µg/mL. In turn, `CCCC(C)NC(=O)c1ccccc1SC` (configuration not stated) yielded a solubility (kinetic) of 34.1 µg/mL (≈ 144 µM). The molecule `C/C(=N\O)c1c(O)cc(-c2ccccc2)n(-c2ccccc2)c1=O` returned a kinetic solubility of more than 48.1 µg/mL. In turn, `Nc1nc(NCCO)nc(N2CCCCCC2)c1[N+](=O)[O-]` yielded a solubility (kinetic) of more than 44.4 µg/mL. In turn, `CN1C(=O)/C(=C\c2ccc(N3CCCCCC3)cc2)C(=O)NC1=S` came in with a solubility (kinetic) of 2.7 µg/mL (≈ 7.86 µM). Molecule `CS(=O)(=O)N(CCc1ccccc1)CC(=O)N1CCCC1` yielded a solubility (kinetic) of more than 46.6 µg/mL. With `COc1ccccc1NS(=O)(=O)c1ccc(OC)c([N+](=O)[O-])c1`, the solubility (kinetic) is more than 50.8 µg/mL. With `CCCCc1ccc(NC(=O)C(C)CC)cc1` (configuration not stated) the figure was 6.7 µg/mL (≈ 28.7 µM). `O=C1COc2ccc(NC(=O)c3ccccc3C(=O)O)cc2N1` displayed a solubility (kinetic) of 40.5 µg/mL (≈ 130 µM).

Molecule `O=C(NCCN1CCOCC1)C(=O)c1c[nH]c2ccccc12` returned a kinetic solubility of more than 45.2 µg/mL.
